Active and inactive are the calls of the source. No cut-off for these calls is given here.
Tests used:
A549 [1] = assay: Inhibition of cell invasion in PM2.5 induced human A549 cells assessed as number of cell perforation at 20 uM measured after 24 hrs by Giemsa staining based transwell assay (reference value: 93 +/- 4.04%); assay type: functional; parameters: scale not given: the % may be the effect or the level left
A549 [2] = assay: Upregulation of PM2.5 induced mRNA expression in human A549 cells at 20 uM by qRT-PCR analysis; assay type: functional, cell-based
A549 [3] = assay: Inhibition of cell migration in PM2.5 induced human A549 assessed as scratch migration length at 30 uM incubated for 24 hr by wound healing assay (reference value: 1.757 +/- 0.094 micrometer); assay type: functional
A549 [4] = assay: Downregulation of PM2.5 induced vimentin mRNA expression in human A549 cells at 20 uM by qRT-PCR analysis relative to control; assay type: functional
A549 [5] = assay: Inhibition of PM2.5 induced PI3K/Akt activation assessed as inhibition of Snail expression in human A549 cells at 10 to 20 uM; assay type: cell-based; settings: dose 10-20 µM
A549 [6] = assay: Inhibition of cell migration in PM2.5 induced human A549 assessed as relative migration rate at 20 uM incubated for 24 hr by wound healing assay (reference value: 129%); assay type: functional; parameters: scale not given: the % may be the effect or the level left
A549 [7] = assay: Cytotoxicity against human A549 cells assessed as reduction in cell viability at 1.5625 to 25 uM incubated for 48 hrs by CCK-8 assay; assay type: toxicity, cell-based; settings: a549, 48 h, dose 1.5625-25 µM
A549 [8] = assay: Inhibition of PM2.5 induced PI3K expression in human A549 cells at 10 to 30 uM by qRT-PCR analysis; assay type: functional, cell-based; settings: dose 10-30 µM
A549 [9] = assay: Downregulation of PM2.5 induced fibronectin mRNA level in human A549 cells at 20 uM by qRT-PCR analysis; assay type: functional, cell-based
A549 [10] = assay: Inhibition of PM2.5 induced Akt phosphorylation in human A549 cells at 10 to 30 uM […]; assay type: functional, cell-based; settings: dose 10-30 µM
[11] = target: Serine/threonine-protein kinase AKT (Homo sapiens) (UniProt P31751+Q9Y243+P31749); assay: Inhibition of PM2.5 induced Akt phosphorylation upregulation in human A549 cells at 30 uM by Western blot analysis relative to control; assay type: cell-based
Sequence of Serine/threonine-protein kinase AKT (Homo sapiens) (P31749 whole entry, looked up): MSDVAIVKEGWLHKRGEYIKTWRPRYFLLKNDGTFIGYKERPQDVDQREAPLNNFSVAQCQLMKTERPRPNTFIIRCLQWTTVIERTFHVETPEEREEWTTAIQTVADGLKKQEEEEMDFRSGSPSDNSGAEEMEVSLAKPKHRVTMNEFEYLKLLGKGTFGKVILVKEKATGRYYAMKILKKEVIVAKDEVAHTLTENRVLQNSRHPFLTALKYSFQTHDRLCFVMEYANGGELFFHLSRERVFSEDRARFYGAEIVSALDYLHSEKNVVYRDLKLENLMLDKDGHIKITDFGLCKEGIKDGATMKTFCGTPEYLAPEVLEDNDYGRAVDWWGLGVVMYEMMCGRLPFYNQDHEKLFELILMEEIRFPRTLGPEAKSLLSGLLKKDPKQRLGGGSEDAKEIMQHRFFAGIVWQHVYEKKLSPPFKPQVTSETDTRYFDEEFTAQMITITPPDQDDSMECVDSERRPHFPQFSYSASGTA
Sequence of Serine/threonine-protein kinase AKT (Homo sapiens) (P31751 whole entry, looked up): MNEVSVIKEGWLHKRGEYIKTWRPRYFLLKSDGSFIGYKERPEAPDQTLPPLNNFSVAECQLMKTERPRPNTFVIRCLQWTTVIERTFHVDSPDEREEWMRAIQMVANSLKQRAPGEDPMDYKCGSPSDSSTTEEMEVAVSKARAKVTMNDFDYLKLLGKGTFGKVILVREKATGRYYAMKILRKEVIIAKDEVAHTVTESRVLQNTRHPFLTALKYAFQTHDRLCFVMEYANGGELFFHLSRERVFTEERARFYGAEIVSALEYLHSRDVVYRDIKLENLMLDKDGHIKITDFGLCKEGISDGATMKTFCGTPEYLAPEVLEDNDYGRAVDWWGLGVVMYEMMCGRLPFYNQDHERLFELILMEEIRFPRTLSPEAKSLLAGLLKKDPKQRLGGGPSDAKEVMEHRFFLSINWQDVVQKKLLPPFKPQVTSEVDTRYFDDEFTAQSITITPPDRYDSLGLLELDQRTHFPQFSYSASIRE
Sequence of Serine/threonine-protein kinase AKT (Homo sapiens) (Q9Y243 whole entry, looked up): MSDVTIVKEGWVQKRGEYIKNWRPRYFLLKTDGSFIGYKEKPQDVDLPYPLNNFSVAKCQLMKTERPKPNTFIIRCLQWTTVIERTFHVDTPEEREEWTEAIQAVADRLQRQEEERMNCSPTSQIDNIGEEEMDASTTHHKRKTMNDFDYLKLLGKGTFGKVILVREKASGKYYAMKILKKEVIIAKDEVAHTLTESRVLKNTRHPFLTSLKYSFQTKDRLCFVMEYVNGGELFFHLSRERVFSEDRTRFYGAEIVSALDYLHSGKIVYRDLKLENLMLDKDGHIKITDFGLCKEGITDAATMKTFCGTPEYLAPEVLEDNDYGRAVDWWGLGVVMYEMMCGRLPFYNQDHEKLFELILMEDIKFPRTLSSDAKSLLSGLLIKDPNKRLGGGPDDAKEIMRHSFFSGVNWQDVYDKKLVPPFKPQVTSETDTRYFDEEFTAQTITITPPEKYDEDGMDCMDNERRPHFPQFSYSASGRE

A549 [12] = assay: Inhibition of PM2.5 induced PI3K upregulation in human A549 cells at 30 uM by Western blot analysis relative to control; assay type: functional
A549 [13] = assay: Inhibition of PM2.5 induced PI3K/Akt activation assessed as inhibition of Slug expression in human A549 cells at 10 to 20 uM; assay type: cell-based; settings: dose 10-20 µM
A549 [14] = assay: Downregulation of PM2.5 induced fibronectin mRNA level in human A549 cells at 10 uM by qRT-PCR analysis; assay type: functional, cell-based
A549 [15] = assay: Inhibition of PM2.5 induced PI3K/Akt activation assessed as inhibition of Twist expression in human A549 cells at 10 to 20 uM; assay type: cell-based; settings: dose 10-20 µM
A549 [16] = assay: Inhibition of cell migration in PM2.5 induced human A549 at 30 uM incubated for 24 hrs by wound healing assay relative to control; assay type: functional
A549 [17] = assay: Downregulation of PM2.5 induced vimentin mRNA expression in human A549 cells at 10 uM by qRT-PCR analysis relative to control; assay type: functional
A549 [18] = assay: Inhibition of cell migration in PM2.5 induced human A549 assessed as relative migration rate at 10 uM incubated for 24 hr by wound healing assay (reference value: 129%); assay type: functional; parameters: scale not given: the % may be the effect or the level left
A549 [19] = assay: Protection against PM2.5 induced human A549 cells morphological change assessed as reduction in number of mesenchymal morphogenetic cells at 10 to 30 uM measured after 48 hrs by microscopic analysis; assay type: functional, cell-based; settings: dose 10-30 µM
A549 [20] = assay: Inhibition of PM2.5 induced TGF-beta1 secretion in human A549 cells at 10 uM by ELISA relative to control; assay type: functional
A549 [21] = assay: Inhibition of cell migration in PM2.5 induced human A549 assessed as scratch migration length at 20 uM incubated for 24 hr by wound healing assay (reference value: 1.757 +/- 0.094 micrometer); assay type: functional
A549 [22] = assay: Inhibition of cell migration in PM2.5 induced human A549 assessed as relative migration rate at 30 uM incubated for 24 hr by wound healing assay (reference value: 129%); assay type: functional; parameters: scale not given: the % may be the effect or the level left
A549 [23] = assay: Downregulation of PM2.5 induced vimentin mRNA expression in human A549 cells at 30 uM by qRT-PCR analysis relative to control; assay type: functional
A549 [24] = assay: Inhibition of cell migration in PM2.5 induced human A549 assessed as relative migration length at 10 uM incubated for 24 hr by wound healing assay (reference value: 0.363 micrometer); assay type: functional
A549 [25] = assay: Inhibition of PM2.5 induced TGF-beta1 secretion in human A549 cells at 20 uM by ELISA relative to control; assay type: functional
A549 [26] = assay: Downregulation of PM2.5 induced N-cadherin mRNA level in human A549 cells at 10 uM by qRT-PCR analysis relative to control; assay type: functional

`COc1ccc(-c2coc3cc(O)cc(O)c3c2=O)cc1` [BIOCHANIN] was tested, and the Activity (A549 [1]) was 61.3%, the Activity (A549 [2]) was “Active” and the Activity (A549 [3]) was 1.552 um. The Activity (A549 [4]) was 48%, the inhibition (A549 [5]) was “Active” and the Activity (A549 [6]) was 171%. The Activity (A549 [7]) was “Non-Toxic”, the inhibition (A549 [8]) was “Active” and the Activity (A549 [9]) was “Active”. For the same molecule, the inhibition (A549 [10]) was “Active”, the inhibition [11] was 17.1% and the inhibition at 30 µM (A549 [12]) was 63.3%. The inhibition (A549 [13]) was “Active”, the Activity (A549 [14]) was “Active” and the inhibition (A549 [15]) was “Active”. For the same molecule, the inhibition at 30 µM (A549 [16]) was 22%, the Activity (A549 [17]) was 76% and the Activity (A549 [18]) was 144%. For the same molecule, the Activity (A549 [19]) was “Active”, the inhibition at 10 µM (A549 [20]) was 16.2% and the Activity (A549 [21]) was 1.451 um. It also gave an Activity (A549 [22]) of 107%, an Activity (A549 [23]) of 78% and an Activity (A549 [24]) of 0.405 um. For the same molecule, the inhibition at 20 µM (A549 [25]) was 13.1% and the Activity (A549 [26]) was 67%.
